Results as given in patent US11185552B2, “Inhibitors of glucose-6-phosphate dehydrogenase for treating cardiovascular and pulmonary conditions” (ICHOR, LLC., priority 2016, dated 2021).

Assays:
[1] = test system: Bovine pulmonary arteries; assay: Smooth muscle protein expression in bovine pulmonary arteries incubated in Krebs buffer; details: 12 hr
Protocol: FIGS. 3A and 3B are graphs showing results for bovine pulmonary arteries that were incubated in Krebs buffer with and without G6PD inhibitor PD2958 (2958) and PD2124 (2124) for 12 hr. Vascular smooth cell-specific protein myocardin (MYOCD; FIG. 3A) and smooth muscle myosin heavy chain (MHY11; FIG. 3B) expression was increased by PD2958 (10 microM) and PD2124 (1 microM).
Bovine pulmonary arteries were incubated in Krebs buffer with and without G6PD inhibitor PD2958 (2958) and PD2124 (2124) for 12 hr. Vascular smooth cell-specific protein myocardin (MYOCD) and smooth muscle myosin heavy chain (MHY11) expression was increased by PD2958 (10 microM) and PD2124 (1 microM) (FIGS. 3A and 3B).

[2] = test system: Rat pulmonary artery smooth muscle cells; assay: Cell number/proliferation by Cyquant assay; type: cell-based; details: 72 hr treatment, versus vehicle control
Protocol: (§1) FIGS. 4A and 4B are graphs showing results for rat pulmonary artery smooth muscle cells that were cultured in 15% DMEM media for 48 hr and cells were treated with newly synthesized G6PD drugs; PD109 (109), PD2124 (2124), PD2958 (2958) and PD4091 (4091) or vehicle control (Con) for 72 hr. Cell number/proliferation (FIG. 4A) and apoptosis (FIG. 4B) was determined by Cyquant and Caspase3/7 assay, respectively. Cell numbers were decreased by G6PD inhibitors (FIG. 4A). Cell apoptosis was increased by PD2958 (1 microM) N=5 in each group (FIG. 4B).
as §1, with “Rat” for “FIGS. 4A and 4B are graphs showing results for rat”, “cells” for “cells that”, “number/proliferation” for “number/proliferation (FIG. 4A)”, “apoptosis” for “apoptosis (FIG. 4B)”, “inhibitors.” for “inhibitors (FIG. 4A).”, “(FIGS. 4A and” for “(FIG.”

[3] = test system: Bovine pulmonary artery rings; assay: Relaxation of KCl pre-contracted bovine pulmonary artery rings; details: pre-contracted with KCl (30 mM), Krebs buffer
Protocol: FIG. 6 is a graph showing bovine pulmonary artery rings that were incubated in Krebs buffer and pre-contracted with KCl (30 mM). These pre-contracted rings relaxed by G6PD inhibitors; PD109 (109), PD2124 (2124), PD2958 (2958) and PD4091 (4091) or dehydroepiandrosterone (DHEA).
Bovine pulmonary artery rings were incubated in Krebs buffer and pre-contracted with KCl (30 mM). These pre-contracted rings relaxed by G6PD inhibitors; PD109 (109), PD2124 (2124), PD2958 (2958) and PD4091 (4091) or dehydroepiandrosterone (DHEA) (FIG. 6).

[4] = test system: mice with pulmonary hypertension; assay: Hypoxia (10% O2) pulmonary hypertension in mice; type: in vivo; details: S.C. 1.3 mg/Kg for 1 wk from wk 4 to wk 5, 10% O2
Protocol: Placebo and 2124 were injected S.C. (1.3 mg/Kg) for 1 wk from wk 4 to wk 5.

[5] = target: G6PD (Homo sapiens, UniProt P11413); assay: G6PD activity inhibition (enzyme assay)
[6] = test system: Rat pulmonary artery smooth muscle cells; assay: Apoptosis by Caspase3/7 assay; type: cell-based; details: 1 microM, 72 hr, N=5
Protocol: as §1
as §1, with “Rat” for “FIGS. 4A and 4B are graphs showing results for rat”, “cells” for “cells that”, “number/proliferation” for “number/proliferation (FIG. 4A)”, “apoptosis” for “apoptosis (FIG. 4B)”, “inhibitors.” for “inhibitors (FIG. 4A).”, “(FIGS. 4A and” for “(FIG.”

[7] = test system: Rat pulmonary artery smooth muscle cells; assay: Cell migration; type: cell-based; details: 1 microM, 72 hr, N=5
Protocol: (§2) FIGS. 5A and 5B are images (FIG. 5A) and a graph (FIG. 5B) showing rat pulmonary artery smooth muscle cells that were cultured in 15% DMEM media for 48 hr and cells were treated with newly synthesized G6PD drugs; PD2958 (2958) or vehicle control (Con) for 72 hr. Cells migration was determined. Cell migration was abrogated by PD2958 (1 microM). N=5 in each group.
as §2, with “Rat” for “FIGS. 5A and 5B are images (FIG. 5A) and a graph (FIG. 5B) showing rat”, “cells” for “cells that”, “group (FIGS. 5A and 5B).” for “group.”

[8] = test system: Aortic rings of wild-type mice; assay: Relaxation of KCl pre-contracted aortic rings, wild-type mice; details: KCl (30 mM)
Protocol: (§3) FIG. 7 is a graph showing aortic rings of wild-type and G6PD-deficient pre-contracted with KCl (30 mM).
(§4) Aortic rings of wild-type and G6PD-deficient pre-contracted with KCl (30 mM).

[9] = test system: Aortic rings of G6PD-deficient mice; assay: Relaxation of KCl pre-contracted aortic rings, G6PD-deficient mice; details: KCl (30 mM)
Protocol: as §3, §4

G6PD, sequence (P11413 whole entry): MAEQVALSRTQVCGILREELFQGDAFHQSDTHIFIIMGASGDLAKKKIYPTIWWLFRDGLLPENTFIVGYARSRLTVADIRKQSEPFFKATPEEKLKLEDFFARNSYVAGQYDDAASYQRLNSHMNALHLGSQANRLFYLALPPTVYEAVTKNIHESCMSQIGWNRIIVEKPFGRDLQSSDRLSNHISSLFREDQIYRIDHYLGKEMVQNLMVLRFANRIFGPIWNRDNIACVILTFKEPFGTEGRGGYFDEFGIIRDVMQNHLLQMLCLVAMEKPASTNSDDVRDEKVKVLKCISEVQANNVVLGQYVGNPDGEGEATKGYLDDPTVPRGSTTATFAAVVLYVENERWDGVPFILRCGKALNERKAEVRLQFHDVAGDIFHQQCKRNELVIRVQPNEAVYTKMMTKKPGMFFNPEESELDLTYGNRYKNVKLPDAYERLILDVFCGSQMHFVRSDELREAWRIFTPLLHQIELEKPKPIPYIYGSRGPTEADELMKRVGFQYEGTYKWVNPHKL

`C[C@]12CC[C@H](O)C[C@@H]1CC[C@@H]1[C@@H]2CC[C@]2(C)[C@@H](C(=O)CO)CC[C@@H]12` [PD2124, (3β,5α)-3,21-Dihydroxypregnan-20-one] was tested, and the “myocardin (MYOCD) expression” value ([1]; 1 microM) was “increased”, the “smooth muscle myosin heavy chain (MHY11) expression” value ([1]; 1 microM) was “increased” and the Cell number/proliferation [2] was “decreased”. The “relaxation of pre-contracted pulmonary artery rings” value [3] was “relaxed”, the TPR [4] was “reduced and reversed” and the arterial elastance [4] was “reduced and reversed”. The cardiac index [4] was “increased”, the “left ventricle (LV) stiffness” value [4] was “reduced and reversed” and the “pulmonary resistance determined as PAAT-to-ET ratio” value [4] was “reduced and reversed”. It also gave an IC50 [5] of 1 to 10 µM.

`CC(=O)[C@H]1CC[C@H]2[C@@H]3CC[C@H]4C[C@@H](NS(C)(=O)=O)CC[C@]4(C)[C@H]3CC[C@]12C` [PD4091, N-[(3β,5α)-20-Oxopregnan-3-yl]methanesulfonamide] showed an IC50 [5] of 1 to 10 µM.

For `C[C@]12CC[C@H](O)CC1=CC[C@@H]1[C@@H]2CC[C@]2(C)C(=O)CC[C@@H]12` [PD109, 5-Androsten-3-beta-hydroxy-17-one (Dehydroepiandrosterone), reference compound], the Cell number/proliferation [2] was “decreased” and the “relaxation of pre-contracted pulmonary artery rings” value [3] was “relaxed”.

With `CCNC(=O)N[C@H]1CC[C@@]2(C)[C@@H](CC[C@@H]3[C@@H]2CC[C@]2(C)C(=O)CC[C@@H]32)C1` [PD2958, N-Ethyl-N′-[(3β,5α)-17-oxoandrostan-3-yl]urea] the “myocardin (MYOCD) expression” value ([1]; 10 microM) was “increased”, the “smooth muscle myosin heavy chain (MHY11) expression” value ([1]; 10 microM) was “increased” and the Cell number/proliferation [2] was “decreased”. For the same compound, the Cell apoptosis [6] was “increased”, the Cell migration [7] was “abrogated” and the “relaxation of pre-contracted pulmonary artery rings” value [3] was “relaxed”. The “relaxation of pre-contracted aortic rings” value [8] was “relaxed in dose-dependent manner”, the “relaxation of pre-contracted aortic rings” value [9] was “not G6PD-deficient mice were relaxed” and the IC50 [5] was 1 to 10 µM.
